± gives the expanded uncertainty stated by the source.
Conditions: 101.33 kPa, Liquid; for viscosity: Concentric cylinders viscometry; for mass density: Vibrating tube method; for electrical conductivity: impedance analyzer

Work on `CCCC[P+](CCCC)(CCCC)CCCC.O=C([O-])[C@@H]1CCCN1` [tetrabutylphosphonium L-prolinate] yielded a viscosity (298.15 K) of 1025 ± 43 mPa·s, a mass density (298.15 K) of 971.1 ± 0.8 kg/m3 and an electrical conductivity (298.15 K) of 0.00727 S/m. For the same compound, the viscosity (303.15 K) was 692.8 ± 26 mPa·s, the mass density (303.15 K) was 968.2 ± 0.8 kg/m3 and the electrical conductivity (303.15 K) was 0.0105 S/m. It also gave a viscosity (313.15 K) of 343.6 ± 9.6 mPa·s, a mass density (313.15 K) of 962.38 ± 0.79 kg/m3 and an electrical conductivity (313.15 K) of 0.0201 ± 0.04 S/m. For the same compound, the viscosity (323.15 K) was 186.1 ± 3.8 mPa·s, the mass density (323.15 K) was 956.46 ± 0.79 kg/m3 and the electrical conductivity (323.15 K) was 0.0354 ± 0.04 S/m. The viscosity (333.15 K) was 108.7 ± 1.6 mPa·s, the mass density (333.15 K) was 950.54 ± 0.78 kg/m3 and the electrical conductivity (333.15 K) was 0.0584 ± 0.04 S/m. For the same compound, the viscosity (343.15 K) was 67.74 ± 0.74 mPa·s, the mass density (343.15 K) was 944.63 ± 0.77 kg/m3 and the electrical conductivity (343.15 K) was 0.0907 ± 0.04 S/m. For the same compound, the viscosity (353.15 K) was 44.5 ± 0.47 mPa·s, the mass density (353.15 K) was 938.75 ± 0.77 kg/m3 and the electrical conductivity (353.15 K) was 0.134 ± 0.04 S/m. It also gave a viscosity (363.15 K) of 30.61 ± 0.33 mPa·s and a mass density (363.15 K) of 932.9 ± 0.76 kg/m3.

Reference: the NIST ThermoML archive (doi:10.1016/j.fluid.2016.02.013)
